What was measured:
[1] = target: T1, Full length Human HDAC2 (Homo sapiens, UniProt Q92769); test: HDAC2 enzymatic assay (deacetylation of FAM-labeled peptide substrate, microfluidic electrophoresis); assay type: biochemical; settings: recombinant enzymatic assay
T1 construct: Full length Human HDAC2; FLAG (C); host or cells: baculovirus expression system
Procedure: (§1) HDAC2 and HDAC1 Enzymatic Assay (HDAC2 and HDAC1 IC50 Data)
(§2) The following describes an assay protocol for measuring the deacetylation of a peptide substrate by HDAC2 or HDAC1.
(§3) HD AC protein composition and respective substrate peptides are summarized below.
(§4) HD AC reactions are assembled in 384 well plates (Greiner) in a total volume of 20 μL as following:
(§5) HDAC proteins are pre-diluted in the assay buffer comprising: 100 mM HEPES, pH 7.5, 0.1% BSA, 0.01% Triton X-100, 25 mM KCl and dispensed into 384 well plate (10 uL per well).
(§6) Test compounds are serially pre-diluted in DMSO and added to the protein samples by acoustic dispensing (Labcyte Echo). Concentration of DMSO is equalized to 1% in all samples.
(§7) Control samples (0%-inhibition in the absence of inhibitor, DMSO only) and 100%-inhibition (in the absence of enzyme) are assembled in replicates of four and used to calculate the %-inhibition in the presence of compounds.
(§8) At this step compounds can be pre-incubated with enzyme if desired.
(§9) The reactions are initiated by addition of 10 uL of the FAM-labeled substrate peptide pre-diluted in the same assay buffer. Final concentration of substrate peptide is 1 uM (HDAC1-2).
(§10) The reactions are allowed to proceed at room temperature. Following incubation, the reactions are quenched by addition of 50 μL of termination buffer (100 mM HEPES, pH7.5, 0.01% Triton X-100, 0.1% SDS). Terminated plates are analyzed on a microfluidic electrophoresis instrument (Caliper LabChip® 3000, Caliper Life Sciences/Perkin Elmer) which enables electrophoretic separation of de-acetylated product from acetylated substrate. A change in the relative intensity of the peptide substrate and product is the parameter measured. Activity in each test sample is determined as the product to sum ratio (PSR): P/(S+P), where P is the peak height of the product, and S is the peak height of the substrate. Percent inhibition (Pinh) is determined using the following equation: Pinh=(PSR0% inh−PSRcompound)/(PSR0% inh−PSR100% inh)*100, in which: PSRcompound is the product/sum ratio in the presence of compound, PSR0% inh is the product/sum ratio in the absence of compound and the PSR100% inh is the product/sum ratio in the absence of the enzyme. To determine IC50 of compounds (50%-inhibition) the %-inh data (Pinh versus compound concentration) are fit by a 4 parameter sigmoid dose-response model using XLfit software (IDBS).
(§11) In the table, “A” indicates a IC50 value of less than 0.5 μM; “B” a IC50 value from 0.5 μM to 1.0 μM; “C” a IC50 value of greater than 1.0 μM and less than or equal to 2.0 μM; and “D” indicates an IC50 value of greater than 2.0 μM. NT=Not Tested.

[2] = target: T2, Full length Human HDAC1 (Homo sapiens, UniProt Q13547); test: HDAC1 enzymatic assay (deacetylation of FAM-labeled peptide substrate, microfluidic electrophoresis); assay type: biochemical; settings: recombinant enzymatic assay
T2 construct: Full length Human HDAC1; His (C); FLAG (C); host or cells: baculovirus expression system
Procedure: as §1, §2, §3, §4, §5, §6, §7, §8, §9, §10, §11

[3] = target: T3, HDAC2 (Homo sapiens, UniProt Q92769); test: HDAC2 Enzymatic Inhibition Assay in SH-SY5Y Cell Lysate with an Exogenous Substrate (HDAC-Glo 2); assay type: cell-based; settings: SH-SY5Y cells
T3 construct: host or cells: SH-SY5Y cells
Procedure: HDAC2 Enzymatic Inhibition Assay in SH-SY5Y Cell Lysate with an Exogenous Substrate
SH-SY5Y cells (Sigma) were cultured in Eagle's Modified Essential Medium supplemented with 10% fetal bovine serum and pen/strep. Twenty-four hours prior to compound dosing 20 uL of cells were plated in white 384 well plates at a density of 1,500 cells/well. Compounds were serially diluted in neat DMSO and then diluted 1:100 v/v into media without FBS and mixed. Media was removed from the plated cells and the diluted compounds in serum free media (1% v/v final DMSO) were added and incubated at 37° C. for five hours. Ten uL of HDAC-Glo 2 reagent with 0.1% Triton X-100 was then added, the plate was mixed and allowed to develop at room temperature for 100 minutes. Plates were then read with a Spectramax LMax luminometer employing a 0.4 s integration time. Dose response curves were constructed with normalized data where CI-994 at 100 uM was defined as 100% inhibition and DMSO alone as 0% inhibition.
as §11

[4] = five hours incubation, Table 3, class symbols

T1 sequence (Q92769 whole entry): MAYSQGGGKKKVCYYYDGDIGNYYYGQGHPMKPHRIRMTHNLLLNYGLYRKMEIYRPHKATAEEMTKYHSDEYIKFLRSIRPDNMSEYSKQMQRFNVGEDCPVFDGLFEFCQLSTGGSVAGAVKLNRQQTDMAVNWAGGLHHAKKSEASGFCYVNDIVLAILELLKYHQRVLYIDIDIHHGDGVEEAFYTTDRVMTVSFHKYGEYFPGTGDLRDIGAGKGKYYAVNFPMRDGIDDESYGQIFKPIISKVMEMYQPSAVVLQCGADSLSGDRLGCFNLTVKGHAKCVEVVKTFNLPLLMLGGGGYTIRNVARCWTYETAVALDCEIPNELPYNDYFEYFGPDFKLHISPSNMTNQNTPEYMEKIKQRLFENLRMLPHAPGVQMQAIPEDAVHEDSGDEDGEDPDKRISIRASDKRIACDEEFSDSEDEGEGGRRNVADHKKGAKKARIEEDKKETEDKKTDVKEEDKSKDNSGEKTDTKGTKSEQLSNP
T3 sequence (Q92769 whole entry): as above
T2 sequence (Q13547 whole entry): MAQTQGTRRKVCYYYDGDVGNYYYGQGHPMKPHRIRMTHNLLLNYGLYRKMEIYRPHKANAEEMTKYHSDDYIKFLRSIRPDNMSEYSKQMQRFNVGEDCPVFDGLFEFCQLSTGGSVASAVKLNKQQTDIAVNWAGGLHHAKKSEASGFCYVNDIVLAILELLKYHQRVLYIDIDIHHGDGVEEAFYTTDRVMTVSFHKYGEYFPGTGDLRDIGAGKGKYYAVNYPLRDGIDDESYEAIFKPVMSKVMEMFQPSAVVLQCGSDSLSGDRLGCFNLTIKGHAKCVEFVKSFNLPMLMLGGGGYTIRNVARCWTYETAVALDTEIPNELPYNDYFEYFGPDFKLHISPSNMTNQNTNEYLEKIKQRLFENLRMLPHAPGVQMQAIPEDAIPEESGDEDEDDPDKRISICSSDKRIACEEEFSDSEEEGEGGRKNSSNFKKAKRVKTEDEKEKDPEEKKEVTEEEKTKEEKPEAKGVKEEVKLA

Cc1cnc(CC2CN(C(=O)Nc3nc(-c4ccc(F)cc4F)ccc3N)C2)cn1 [Compound 14]
IC50 ([1]; Table 2, class symbols): 500 to 1000 nM | IC50 ([1]; Table 4, numeric): 583 nM | IC50 ([2]; Table 2, class symbols): < 500 nM | IC50 ([2]; Table 4, numeric): 406 nM | IC50 ([3]; Table 4, numeric): 687 nM | IC50 [3, 4]: 500 to 1000 nM

Nc1ccc(-c2ccccc2F)nc1NC(=O)N1CC(C(F)(F)c2ncccn2)C1 [Compound 35]
IC50 ([1]; Table 2, class symbols): 500 to 1000 nM | IC50 ([2]; Table 2, class symbols): 1000 to 2000 nM | IC50 [3, 4]: 500 to 1000 nM

Nc1ccc(-c2ccc(F)cc2F)nc1NC(=O)N1CC(Cc2ccncc2)C1 [Compound 4]
IC50 ([1]; Table 2, class symbols): > 2000 nM | IC50 ([2]; Table 2, class symbols): > 2000 nM | IC50 [3, 4]: 1000 to 2000 nM

Cc1cc(CC2CN(C(=O)Nc3nc(-c4ccc(F)cc4F)ccc3N)C2)ncn1 [Compound 19]
IC50 ([1]; Table 2, class symbols): 1000 to 2000 nM | IC50 ([2]; Table 2, class symbols): 1000 to 2000 nM | IC50 [3, 4]: 500 to 1000 nM

Cc1cccc(CC2CN(C(=O)Nc3nc(-c4ccc(F)cc4)ccc3N)C2)n1 [Compound 79]
IC50 ([1]; Table 2, class symbols): 1000 to 2000 nM | IC50 ([2]; Table 2, class symbols): 500 to 1000 nM | IC50 [3, 4]: > 2000 nM

Cc1cc(C)nc(CC2CN(C(=O)Nc3nc(-c4ccc(F)cc4F)ccc3N)C2)n1 [Compound 50]
IC50 [3, 4]: > 2000 nM

Nc1ccc(-c2ccc(F)cc2F)nc1NC(=O)N1CC(Cc2ncco2)C1 [Compound 22]
IC50 ([1]; Table 2, class symbols): 500 to 1000 nM | IC50 ([2]; Table 2, class symbols): 500 to 1000 nM | IC50 [3, 4]: 500 to 1000 nM

Nc1ccc(-c2ccc(F)cc2)nc1NC(=O)N1CC(Cc2ncc(C(F)F)cn2)C1 [Compound 76]
IC50 ([1]; Table 2, class symbols): 500 to 1000 nM | IC50 ([2]; Table 2, class symbols): < 500 nM | IC50 [3, 4]: 1000 to 2000 nM

Nc1ccc(-c2cccs2)nc1NC(=O)N1CC(C(F)(F)c2ncccn2)C1 [Compound 70]
IC50 ([1]; Table 2, class symbols): 500 to 1000 nM | IC50 ([2]; Table 2, class symbols): < 500 nM | IC50 [3, 4]: 1000 to 2000 nM

Nc1ccc(-c2ccc(F)cc2)nc1NC(=O)N1CC(Cc2ncc(F)cn2)C1 [Compound 27]
IC50 ([1]; Table 2, class symbols): < 500 nM | IC50 ([2]; Table 2, class symbols): < 500 nM | IC50 [3, 4]: 500 to 1000 nM

Nc1ccc(-c2ccccc2F)nc1NC(=O)N1CC(Cc2ncc(F)cn2)C1 [Compound 26]
IC50 ([1]; Table 2, class symbols): 500 to 1000 nM | IC50 ([2]; Table 2, class symbols): 500 to 1000 nM | IC50 [3, 4]: 1000 to 2000 nM

Cc1ccc(CC2CN(C(=O)Nc3nc(-c4ccc(F)cc4F)ccc3N)C2)nn1 [Compound 24]
IC50 ([1]; Table 2, class symbols): 1000 to 2000 nM | IC50 ([2]; Table 2, class symbols): 500 to 1000 nM | IC50 [3, 4]: < 500 nM

Nc1ccc(-c2ccc(F)cc2F)nc1NC(=O)N1CC(Cc2cccc3nccn23)C1 [Compound 48]
IC50 [3, 4]: > 2000 nM

Cc1cnc(CC2CN(C(=O)Nc3nc(-c4ccc(F)cc4)ccc3N)C2)nc1 [Compound 65]
IC50 ([1]; Table 2, class symbols): 500 to 1000 nM | IC50 ([2]; Table 2, class symbols): < 500 nM | IC50 [3, 4]: 500 to 1000 nM

Nc1ccc(-c2ccc(F)cc2F)nc1NC(=O)N1CC(Cc2nnc(C(F)(F)F)s2)C1 [Compound 46]
IC50 ([1]; Table 2, class symbols): 1000 to 2000 nM | IC50 ([2]; Table 2, class symbols): 1000 to 2000 nM | IC50 [3, 4]: > 2000 nM

Cc1cnc(CC2CN(C(=O)Nc3nc(-c4ccc(F)s4)ccc3N)C2)nc1 [Compound 67]
IC50 [3, 4]: 500 to 1000 nM

Cc1cc(CC2CN(C(=O)Nc3nc(-c4ccc(F)cc4F)ccc3N)C2)nc(C)n1 [Compound 10]
IC50 [3, 4]: > 2000 nM

Cc1nccc(CC2CN(C(=O)Nc3nc(-c4ccc(F)cc4F)ccc3N)C2)n1 [Compound 15]
IC50 ([1]; Table 2, class symbols): > 2000 nM | IC50 ([2]; Table 2, class symbols): > 2000 nM | IC50 [3, 4]: > 2000 nM

Cc1cnc(CC2CN(C(=O)Nc3nc(-c4ccc(F)cc4)ccc3N)C2)o1 [Compound 63]
IC50 [3, 4]: 1000 to 2000 nM

Nc1ccc(-c2ccc(F)cc2)nc1NC(=O)N1CC(Cc2ccc(C(F)(F)F)cn2)C1 [Compound 85]
IC50 [3, 4]: > 2000 nM

Nc1ccc(-c2ccc(F)s2)nc1NC(=O)N1CC(Cc2ncc(F)cn2)C1 [Compound 61]
IC50 ([1]; Table 2, class symbols): 500 to 1000 nM | IC50 ([2]; Table 2, class symbols): < 500 nM | IC50 [3, 4]: 1000 to 2000 nM

Nc1ccc(-c2ccc(F)cc2F)nc1NC(=O)N1CC(Cc2ncc(F)cn2)C1 [Compound 21]
IC50 ([1]; Table 2, class symbols): 500 to 1000 nM | IC50 ([2]; Table 2, class symbols): < 500 nM | IC50 [3, 4]: 500 to 1000 nM

Nc1ccc(-c2cccs2)nc1NC(=O)N1CC(Cc2ncccn2)C1 [Compound 68]
IC50 ([1]; Table 2, class symbols): 1000 to 2000 nM | IC50 ([2]; Table 2, class symbols): < 500 nM | IC50 [3, 4]: 500 to 1000 nM

Cc1cnc(CC2CN(C(=O)Nc3nc(-c4ccc(F)s4)ccc3N)C2)o1 [Compound 62]
IC50 [3, 4]: > 2000 nM

Cc1cnc(CC2CN(C(=O)Nc3nc(-c4ccc(F)cc4F)ccc3N)C2)s1 [Compound 25]
IC50 [3, 4]: > 2000 nM

COCc1cccc(CC2CN(C(=O)Nc3nc(-c4ccc(F)cc4F)ccc3N)C2)n1 [Compound 17]
IC50 [3, 4]: > 2000 nM

Cc1cncn1CC1CN(C(=O)Nc2nc(-c3ccc(F)cc3F)ccc2N)C1 [Compound 52]
IC50 [3, 4]: > 2000 nM

Nc1ccc(-c2ccc(F)cc2)nc1NC(=O)N1CC(C(F)(F)c2ccccn2)C1 [Compound 75]
IC50 [3, 4]: > 2000 nM

CC(c1ncccn1)C1CN(C(=O)Nc2nc(-c3ccccc3F)ccc2N)C1 (centres unmarked) [Compound 58]
IC50 [3, 4]: 1000 to 2000 nM

Cc1ccnn1CC1CN(C(=O)Nc2nc(-c3ccc(F)cc3F)ccc2N)C1 [Compound 54]
IC50 [3, 4]: 1000 to 2000 nM

Nc1ccc(-c2ccc(F)cc2F)nc1NC(=O)N1CC(Cc2ccc(C(F)(F)F)cn2)C1 [Compound 49]
IC50 [3, 4]: > 2000 nM

Cc1cnc(CC2CN(C(=O)Nc3nc(-c4ccc(F)cc4F)ccc3N)C2)o1 [Compound 55]
IC50 [3, 4]: > 2000 nM

Nc1ccc(-c2ccc(F)cc2F)nc1NC(=O)N1CC(Cc2ccn3cncc3c2)C1 [Compound 8]
IC50 [3, 4]: > 2000 nM

CC(F)(c1ncccn1)C1CN(C(=O)Nc2nc(-c3ccc(F)cc3F)ccc2N)C1 (centres unmarked) [Compound 60]
IC50 [3, 4]: > 2000 nM

Cc1cn(CC2CN(C(=O)Nc3nc(-c4ccc(F)cc4F)ccc3N)C2)cn1 [Compound 51]
IC50 [3, 4]: > 2000 nM

COCc1cc(CC2CN(C(=O)Nc3nc(-c4ccc(F)cc4F)ccc3N)C2)ccn1 [Compound 18]
IC50 [3, 4]: > 2000 nM

Cc1ccn(CC2CN(C(=O)Nc3nc(-c4ccc(F)cc4F)ccc3N)C2)n1 [Compound 53]
IC50 [3, 4]: > 2000 nM

CCC(c1ncccn1)C1CN(C(=O)Nc2nc(-c3ccc(F)cc3F)ccc2N)C1 (centres unmarked) [Compound 56]
IC50 [3, 4]: > 2000 nM

Nc1ccc(-c2ccc(F)cc2F)nc1NC(=O)N1CC(Cc2cncnc2)C1 [Compound 20]
IC50 [3, 4]: > 2000 nM

Nc1ccc(-c2ccc(F)cc2F)nc1NC(=O)N1CC(OCc2ccccn2)C1 [Compound 29]
IC50 [3, 4]: > 2000 nM

Nc1ccc(-c2ccc(F)cc2F)nc1NC(=O)N1CC(C(F)c2ncc(F)cn2)C1 (centres unmarked) [Compound 41]
IC50 [3, 4]: 1000 to 2000 nM

Nc1ccc(-c2ccc(F)cc2F)nc1NC(=O)N1CC(Cc2ccncn2)C1 [Compound 32]
IC50 [3, 4]: 1000 to 2000 nM

Nc1ccc(-c2ccc(F)cc2F)nc1NC(=O)N1CC(Oc2cccnc2)C1 [Compound 28]
IC50 [3, 4]: > 2000 nM

Source: US20210276977A1, “BICYCLIC INHIBITORS OF HISTONE DEACETYLASE” (Alkermes, Inc., priority 2018, published 2021)
